Common to all, as to assay: inhibition of tumour cell growth, NCI panel, 48 h
Assay [1] concerns SK-MEL-5.
The test system of assay [2] is NCI-H226.
For assay [3], the system named is A549.
For assay [4], the system named is OVCAR-4.
Assay [5] deals with CCRF-CEM.
Assay [6] concerns UACC-257.
Assay [7] deals with SN12C.
Assay [8] relates to NCI-H522.
Assay [9] concerns HCT-15.
In assay [10] the test system is SR.
For assay [11], the system named is A498.
The test system of assay [12] is KM12.
Assay [13] deals with RXF 393.
Assay [14] has as its system COLO 205.
Assay [15] has as its system SK-OV-3.
In assay [16] the test system is OVCAR-3.
For assay [17], the system named is EKVX.
Assay [18] relates to 786-0.
Assay [19] deals with Malme-3M.
Assay [20] relates to M14.

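Five concentrations, 48 hours, 96-well plates. GI50 marks 50% less growth.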 Calls of active or inactive are those of the source. Cut-off read from the data, not from the text of the source: active = GI50 up to about 1.1 µM and inactive = higher.

Regarding `CC1(CO)COS(=O)OC1` (centres undefined), the GI50 in assay [1], in [2], in assay [3], in [4], in assay [5] and in [6] was > 100 µM (inactive) in each case. Also, the GI50 was > 100 µM (inactive) in assay [7]; > 100 µM (inactive) in assay [8]; over 100 µM in assay [9]; > 100 µM (inactive) in assay [10]; 1.89 µM (inactive) in assay [11]; > 100 µM (inactive) in [12]. In addition, the GI50 in assay [13], in assay [14], in assay [15] and in assay [16] was > 100 µM (inactive) throughout.
For `O=C1c2ccccc2C2(c3ccc(Cl)cc3)N[C@H]3CCCC[C@@H]3N12` (some centres undefined), the GI50 was > 100 µM (inactive) in [1]; 61.1 µM (inactive) in assay [2]; 78.3 µM (inactive) in assay [17]; 77.6 µM (inactive) in assay [3]; 84.3 µM (inactive) in assay [4]; 53.2 µM (inactive) in assay [5]. For the same compound, the GI50 was > 100 µM (inactive) in [6]; > 100 µM (inactive) in [7]; 95.1 µM (inactive) in [18]; over 100 µM in [9]; 43.6 µM (inactive) in assay [10]; > 100 µM (inactive) in assay [11]. In addition, the GI50 was 85.5 µM (inactive) in assay [12]; 97.9 µM (inactive) in assay [13]; > 100 µM (inactive) in assay [14]; > 100 µM (inactive) in assay [15]; > 100 µM (inactive) in assay [16].
Regarding `O=C(O)C(=C\c1ccc2c(c1)OCO2)/C(=C/c1ccc2c(c1)OCO2)C(=O)O`, the GI50 in [1], in [19], in [2], in assay [4], in assay [5] and in [6] was > 100 µM (inactive) throughout. In addition, the GI50 in assay [7] is > 100 µM (inactive); in assay [20], > 100 µM (inactive); in [9], over 100 µM; in assay [10], > 100 µM (inactive); in [11], > 100 µM (inactive); in assay [12], > 100 µM (inactive). Moreover, the GI50 in [13], in assay [14], in assay [15] and in assay [16] was > 100 µM (inactive) each time.
For `N#CCCN(CCN(CCC#N)C(=O)Nc1ccccc1)C(=O)Nc1ccccc1`, the GI50 is > 100 µM (inactive) in [1]; > 100 µM (inactive) in assay [19]; > 100 µM (inactive) in assay [2]; 90.8 µM (inactive) in [17]; 80.2 µM (inactive) in assay [3]; > 100 µM (inactive) in [5]. Moreover, the GI50 is > 100 µM (inactive) in assay [6]; > 100 µM (inactive) in assay [7]; 32.3 µM (inactive) in assay [8]; 75.5 µM (inactive) in assay [18]; > 100 µM (inactive) in assay [20]; over 100 µM in [9]. The GI50 in assay [10] is > 100 µM (inactive); in assay [11], > 100 µM (inactive); in assay [13], 24.4 µM (inactive); in [14] it was > 100 µM (inactive); in assay [15] it was 28.6 µM (inactive).
As to `CC12C3C4C1C1C2C3C41CO` (centres undefined), the GI50 in assay [1], in assay [2], in assay [17], in [3], in [4] and in assay [5] was > 100 µM (inactive) each time. Besides, the GI50 in assay [6] was > 100 µM (inactive); in [7], > 100 µM (inactive); in assay [18] it was > 100 µM (inactive); in assay [20], > 100 µM (inactive); in [9], over 100 µM; in [10] it was > 100 µM (inactive). For the same compound, the GI50 in assay [11], in assay [12], in assay [13], in [14], in assay [15] and in assay [16] was > 100 µM (inactive) in each case.

(Values after ChEMBL document CHEMBL1201862, “PubChem BioAssay data set” (2004).)
